The results in this text go back to ChEMBL document CHEMBL4699474, “Dimeric Tetrahydroanthracene Regioisomers and Their Monomeric Precursor Produced by Streptomyces fumigatiscleroticus HDN10255” (J Nat Prod, 2020).

Structures are written as SMILES. Structures can show the parent of a compound that is named as a salt.

Assay type in all cases: functional, cell-based
The test system of one test is HCT-116. The test is described as follows: Cytotoxicity against human HCT-116 cells assessed as reduction in cell viability after 48 hrs by SRB assay. Particulars: HCT-116, 48 h. On the technique in general: In SRB staining, fixed cells bind dye roughly in proportion to their protein.
The test system of another test is HeLa. The test is described as follows: Cytotoxicity against human HeLa cells assessed as reduction in cell viability after 48 hrs by SRB assay.
Another test relates to HL-60. In words: Cytotoxicity against human HL-60 cells assessed as reduction in cell viability after 48 hrs by MTT assay. The settings on record: HL-60, 48 h.
The subject of a further test is K562. The test is described as follows: Cytotoxicity against human K562 cells assessed as reduction in cell viability after 48 hrs by MTT assay. The settings on record: K562, 48 h.

As a reminder, the IC50 is the concentration that inhibits the measured activity by half. For the compound `CC(=O)[C@H]1c2c(c(O)c3c(O)cccc3c2-c2c3c(c(O)c4c(O)cccc24)C(=O)C[C@](C)(O)[C@H]3C(C)=O)C(=O)C[C@]1(C)O`, the half-inhibitory concentration (IC50) was greater than 10 µM with HCT-116, 1.8 µM with HeLa, greater than 10 µM with HL-60 and 5.1 µM in the test on K562.
In the case of `CC(=O)[C@H]1c2cc3cccc(O)c3c(O)c2C(=O)C[C@]1(C)O`, the half-maximal inhibitory concentration (IC50) in the test on HCT-116, with HeLa, with HL-60 and with K562 was greater than 10 µM each time.
Turning to `CC(=O)[C@H]1c2cc3c(-c4c5c(c(O)c6c(O)cccc46)C(=O)C[C@](C)(O)[C@H]5C(C)=O)ccc(O)c3c(O)c2C(=O)C[C@]1(C)O`, the IC50 with HCT-116 is greater than 10 µM; with HeLa, 5.1 µM; in the test with HL-60 it was 6.2 µM; in the test with K562 it was 10 µM.
As to `CC(=O)[C@H]1c2cc3ccc(-c4c5c(c(O)c6c(O)cccc46)C(=O)C[C@](C)(O)[C@H]5C(C)=O)c(O)c3c(O)c2C(=O)C[C@]1(C)O`, the IC50 with HCT-116, in the test on HeLa, in the test on HL-60 and in the test with K562 was greater than 10 µM in each case.
In the case of `CC(=O)[C@H]1c2cc3c(-c4ccc(O)c5c(O)c6c(cc45)[C@H](C(C)=O)[C@@](C)(O)CC6=O)ccc(O)c3c(O)c2C(=O)C[C@]1(C)O`, the IC50 in the test on HCT-116, in the test with HeLa, in the test with HL-60 and in the test on K562 was greater than 10 µM each time.
As to `COc1cccc2c1C(=O)c1c(O)c3c(c(O)c1C2=O)C[C@@](O)(C(=O)CO)C[C@@H]3O[C@H]1C[C@H](N)[C@H](O)[C@H](C)O1` [DOXORUBICIN HYDROCHLORIDE], the half-inhibitory concentration (IC50) in the test on K562 came out at 0.2 µM.
